Patent publication US20230391845A1, “GLP-1, GIP AND GLUCAGON RECEPTOR TRIPLE AGONISTS” (priority 2020, published 2023)
*1 amine or outer side, *2 acyl side, *3 side chain or, on linkers, in order; H or OH if unused. Where a SMILES comes first, the peptide text is derived from it. Side-chain parts run from the residue outwards. [ ]: non-standard residue; d: D form. The star is where a group is joined. X1 = O=C(O)CCCCCCCCCCCCCCCCCCC(=O)NCC1CCC(C(=O)*)CC1; γGlu = O=C(O)[C@H](CCC(=O)[*:2])N[*:1]; εLys = N[C@@H](CCCCN[*:1])C(=O)[*:2]; Aib = CC(C)(N)C(=O)O

How the values were obtained:
mouse GLP-1 receptor = biological target: T1, mouse GLP-1 receptor (Mus musculus, UniProt O35659); experiment: In vitro functional potency (CRE luciferase; whole cells), mouse GLP-1R; assay type: cell-based; conditions: BHK cells expressing mouse GLP-1 receptor
T1 construct: expressed in transfected cells; host or cells: BHK cells (parent line BHKTS13) containing CRE luciferase
T1 sequence (O35659 22-463): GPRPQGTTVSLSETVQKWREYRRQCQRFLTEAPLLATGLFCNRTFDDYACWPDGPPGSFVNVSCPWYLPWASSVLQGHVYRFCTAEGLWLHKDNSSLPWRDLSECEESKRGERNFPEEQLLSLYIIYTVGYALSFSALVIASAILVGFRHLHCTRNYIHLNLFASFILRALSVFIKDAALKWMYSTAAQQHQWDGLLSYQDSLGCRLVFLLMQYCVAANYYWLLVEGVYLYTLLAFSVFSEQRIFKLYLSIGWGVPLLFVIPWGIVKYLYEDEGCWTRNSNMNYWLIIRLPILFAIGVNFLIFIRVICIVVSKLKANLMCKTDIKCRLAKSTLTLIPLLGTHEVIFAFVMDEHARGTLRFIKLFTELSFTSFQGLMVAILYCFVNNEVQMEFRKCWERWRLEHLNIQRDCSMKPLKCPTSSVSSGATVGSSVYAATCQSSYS
Protocol: (§1) The purpose of this example is to test the functional activity, or potency, of the compounds in vitro at the human and mouse GLP-1, GIP, and Gcg receptors. The in vitro functional potency is the measure of target receptor activation in a whole cell assay.
(§2) In vitro functional potency was determined by measuring the response of the target receptor in a reporter gene assay in individual cell lines. The assay was performed in stably transfected BHK cell lines that expresses one of the following G-protein coupled receptors: human GLP-1 receptor, human GIP receptor, human Gcg receptor, mouse GLP-1 receptor, mouse GIP receptor, or mouse Gcg receptor; and where each cell line contains the DNA for the cAMP response element (CRE) coupled to a promoter and the gene for firefly luciferase (CRE luciferase). When the respective receptor is activated, it results in the production of cAMP, which in turn results in expression of the luciferase protein. […] The luminescence is measured as the readout for the assay. […]
(§3) The data from the microtiter plate reader was first regressed in an Excel in order to calculate the x-axis, log scale concentrations based on the individual test compound's stock concentration and the dilutions of the assay. […] A minimum of two replicates was measured for each sample. […]

mouse Gcg receptor = biological target: T2, mouse Gcg receptor (Mus musculus, UniProt Q61606); experiment: In vitro functional potency (CRE luciferase; whole cells), mouse GcgR; assay type: cell-based; conditions: BHK cells expressing mouse Gcg receptor
T2 construct: expressed in transfected cells; host or cells: BHK cells (parent line BHKTS13) containing CRE luciferase
Protocol: as §1, §2, §3

mouse GIP receptor = biological target: T3, mouse GIP receptor (Mus musculus, UniProt Q0P543); experiment: In vitro functional potency (CRE luciferase; whole cells), mouse GIPR; assay type: cell-based; conditions: BHK cells expressing mouse GIP receptor
T3 construct: expressed in transfected cells; host or cells: BHK cells (parent line BHKTS13) containing CRE luciferase
T3 sequence (Q0P543 19-460): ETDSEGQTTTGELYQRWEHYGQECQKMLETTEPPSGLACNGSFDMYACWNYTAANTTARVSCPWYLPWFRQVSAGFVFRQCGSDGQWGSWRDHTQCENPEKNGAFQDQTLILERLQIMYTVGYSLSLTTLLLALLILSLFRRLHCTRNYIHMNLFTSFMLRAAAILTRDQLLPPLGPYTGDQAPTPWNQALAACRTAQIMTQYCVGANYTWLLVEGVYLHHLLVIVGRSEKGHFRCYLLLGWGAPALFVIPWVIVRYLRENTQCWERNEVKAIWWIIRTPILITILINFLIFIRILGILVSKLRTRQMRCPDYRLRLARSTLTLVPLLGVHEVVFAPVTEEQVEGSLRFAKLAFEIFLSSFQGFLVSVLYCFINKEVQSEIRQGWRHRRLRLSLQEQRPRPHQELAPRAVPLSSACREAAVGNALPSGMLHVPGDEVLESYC
Protocol: as §1, §2, §3

[1] = glucagon: depending on the route of administration; cited from earlier work

T2 sequence (Q61606 27-485): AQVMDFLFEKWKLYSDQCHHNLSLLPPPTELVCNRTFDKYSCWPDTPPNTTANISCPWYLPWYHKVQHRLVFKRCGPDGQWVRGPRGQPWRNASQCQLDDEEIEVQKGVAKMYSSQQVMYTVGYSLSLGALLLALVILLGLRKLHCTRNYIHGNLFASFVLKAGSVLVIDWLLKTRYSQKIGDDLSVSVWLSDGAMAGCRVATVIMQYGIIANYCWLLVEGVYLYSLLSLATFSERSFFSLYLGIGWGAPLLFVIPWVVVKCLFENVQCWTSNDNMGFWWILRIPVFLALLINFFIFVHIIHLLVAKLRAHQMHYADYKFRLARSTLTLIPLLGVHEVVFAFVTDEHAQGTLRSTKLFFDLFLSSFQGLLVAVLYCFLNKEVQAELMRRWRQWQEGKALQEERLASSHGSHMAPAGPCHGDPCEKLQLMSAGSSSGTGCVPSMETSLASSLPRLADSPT

| SMILES | mGLP-1R CRE Luc EC50 (pM) (mouse GLP-1 receptor) | mGcgR CRE Luc EC50 (pM) (mouse Gcg receptor) | mGIPR CRE Luc EC50 (pM) (mouse GIP receptor) | half-life as measured in man [1] [min] |
| --- | --- | --- | --- | --- |
| CC[C@H](C)[C@H](NC(=O)[C@H](CO)NC(=O)[C@H](Cc1ccc(O)cc1)NC(=O)[C@H](CC(=O)O)NC(=O)[C@H](CO)NC(=O)[C@@H](NC(=O)[C@H](Cc1ccccc1)NC(=O)[C@@H](NC(=O)CNC(=O)[C@H](Cc1c[nH]cn1)NC(=O)C(C)(C)NC(=O)[C@@H](N)Cc1c[nH]cn1)[C@@H](C)O)[C@@H](C)O)C(=O)N[C@@H](Cc1ccc(O)cc1)C(=O)N[C@@H](CC(C)C)C(=O)N[C@@H](CCC(=O)O)C(=O)N[C@@H](CCCCNC(=O)[C@@H](N)CCCCNC(=O)[C@@H](N)CCCCNC(=O)CC[C@H](NC(=O)C1CCC(CNC(=O)CCCCCCCCCCCCCCCCCCC(=O)O)CC1)C(=O)O)C(=O)N[C@@H](CCC(N)=O)C(=O)N[C@@H](C)C(=O)N[C@@H](C)C(=O)NC(C)(C)C(=O)N[C@@H](CCC(=O)O)C(=O)N[C@@H](Cc1ccccc1)C(=O)N[C@H](C(=O)N[C@@H](CCC(N)=O)C(=O)N[C@@H](Cc1c[nH]c2ccccc12)C(=O)N[C@@H](CC(C)C)C(=O)N[C@@H](CC(C)C)C(=O)N[C@@H](CCC(=O)O)C(=O)NCC(=O)NCC(=O)N1CCC[C@H]1C(=O)N[C@@H](CO)C(=O)N[C@@H](CO)C(=O)NCC(=O)N[C@@H](C)C(=O)N1CCC[C@H]1C(=O)N1CCC[C@H]1C(=O)N1CCC[C@H]1C(=O)N[C@@H](CO)C(N)=O)C(C)C (stereo partly shown) [Compound No. 21] (H-H[Aib]HGTFTSDYSIYLEK([εLys-εLys-γGlu-X1])QAA[Aib]EFVQWLLEGGPSSGAPPPS-NH2; N-terminus assumed) | similar | reduced | similar | – |
| CC[C@H](C)[C@H](NC(=O)[C@H](CO)NC(=O)[C@H](Cc1ccc(O)cc1)NC(=O)[C@H](CC(=O)O)NC(=O)[C@H](CO)NC(=O)[C@@H](NC(=O)[C@H](Cc1ccccc1)NC(=O)[C@@H](NC(=O)CNC(=O)[C@H](CCC(=O)O)NC(=O)[C@H](C)NC(=O)[C@@H](N)Cc1ccc(O)cc1)[C@@H](C)O)[C@@H](C)CC)C(=O)N[C@@H](C)C(=O)N[C@@H](CCSC)C(=O)N[C@@H](CC(=O)O)C(=O)N[C@@H](CCCCN)C(=O)N[C@H](C(=O)N[C@@H](Cc1c[nH]cn1)C(=O)N[C@@H](CCC(N)=O)C(=O)N[C@@H](CCC(N)=O)C(=O)N[C@@H](CC(=O)O)C(=O)N[C@@H](Cc1ccccc1)C(=O)N[C@H](C(=O)N[C@@H](CC(N)=O)C(=O)N[C@@H](Cc1c[nH]c2ccccc12)C(=O)N[C@@H](CC(C)C)C(=O)N[C@@H](CC(C)C)C(=O)N[C@@H](C)C(=O)N[C@@H](CCC(N)=O)C(=O)N[C@@H](CCCCN)C(=O)NCC(=O)N[C@@H](CCCCN)C(=O)N[C@@H](CCCCN)C(=O)N[C@@H](CC(N)=O)C(=O)N[C@@H](CC(=O)O)C(=O)N[C@@H](Cc1c[nH]c2ccccc12)C(=O)N[C@@H](CCCCN)C(=O)N[C@@H](Cc1c[nH]cn1)C(=O)N[C@@H](CC(N)=O)C(=O)N[C@H](C(=O)N[C@H](C(=O)N[C@@H](CCC(N)=O)C(=O)O)[C@@H](C)O)[C@@H](C)CC)C(C)C)[C@@H](C)CC [hGIP, Native Human GIP] | – | – | – | 5 to 7 |
